How the values were obtained:
[1] = target: T1, RNase A (Bos taurus, UniProt P61823); test: Fluorometric detection nuclease assay, RNase A; format: biochemical, mammalian; details: Substrate 50 nM
T1 sequence (P61823 27-150): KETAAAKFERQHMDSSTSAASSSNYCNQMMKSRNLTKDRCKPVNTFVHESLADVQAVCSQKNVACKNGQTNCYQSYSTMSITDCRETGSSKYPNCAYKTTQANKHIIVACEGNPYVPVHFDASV
Experimental: Nuclease assays were conducted using the method of the invention. SEQ ID NO:2 and SEQ ID NO:3 oligonucleotides were individually mixed in 1× Assay Buffer at a concentration of 50 nM (150 pmoles oligonucleotide in 3 mls volume). […] Assays were set up directly in cuvettes as follows:
Assay Mixes were incubated at 37° C. for 1 hour. Fluorescence emission spectra were measured using a PTI fluorometer with 490 nm excitation. Substrate SEQ ID NO:2 (having chimeric RNA-DNA composition) reacted with both DNase I (undesired) and RNase A (desired).
(§1) Nuclease assays were conducted using the method of the invention. The Substrate (SEQ ID NO:30) was mixed in 1× Assay Buffer at a concentration of 50 nM (150 pmoles oligonucleotide in 3 mls volume). Test nucleases were added to respective Assay Mixes, including 1 ul of RNase A (1 ug), 1 ul of RNase 1 (100 units), or 1 ul of RNase T1 (1000 units). […] Assays were set up directly in cuvettes as follows:
(§2) Assay Mixes were incubated at 37° C. for 1 hour. Assays were transferred to cuvettes and fluorescence emission at 520 nm was measured using a PTI fluorometer with 490 nm excitation. Substrate SEQ ID NO:30, a preferred Substrate of the invention, reacted with (i.e., detected) all three RNase enzymes, verifying that Substrate compositions of the invention are sensitive to a variety of RNase enzymes.
Substrate SEQ ID NO:30 was mixed in 1× Assay Buffer at a concentration of 50 nM (150 pmoles oligonucleotide in 3 mls volume). RNase A was added at final concentrations of 10 ng/ml, 2 ng/ml, 1 ng/ml, and 0.4 ng/ml. […] Assay mixes were incubated at 37° C. in a cuvette directly in a PTI fluorometer. Fluorescence emission at 520 nm with 490 nm excitation was measured over time. At high nuclease concentrations, the reaction goes rapidly to completion. At lower nuclease concentrations, the reaction rate decreases but with longer incubation times an easily detectable signal is generated. Substrate concentration is fixed and input enzyme (i.e., the test sample) varies. Since the background is stable (monitored in the control reaction), use of extended incubation periods will increase the sensitivity of the assay.
Assays were conducted using the method of the invention with fluorometric detection. Substrate SEQ ID NO:30 was mixed in 1× Assay Buffer at a concentration of 50 nM (50 pmoles ODN in 1.0 ml volume) in RNase-free disposable cuvettes. […] Dilutions of stock RNase A, RNase 1, and RNase T1 were made in water. Undiluted and diluted nuclease (1 ul) was added to respective 1.0 ml Assay Mixes resulting in final dilution factors of 10^−3, 10^−4, 10^−5, 10^−6, 10^−7, 10^−8, and 10^−9. Assays were incubated at 37° C. for 1 hour and examined for fluorescence emission at 520 nm using 490 nm excitation in a PTI fluorometer. Final enzyme concentration reported notes the lowest concentration tested that was reproducibly positive with a signal:noise ratio of at least 2:1.

[2] = target: RNase T1 (Aspergillus oryzae, UniProt P00651); test: Fluorometric detection nuclease assay, RNase T1; format: biochemical; details: Substrate 50 nM, 37° C. 1 hour
Sequence of RNase T1 (P00651 27-130): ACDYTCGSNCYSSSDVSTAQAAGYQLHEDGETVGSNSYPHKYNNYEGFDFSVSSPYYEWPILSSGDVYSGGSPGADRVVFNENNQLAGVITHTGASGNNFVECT
Experimental: as §1, §2
Assays were conducted using the method of the invention with fluorometric detection. Substrate SEQ ID NO:30 was mixed in 1× Assay Buffer at a concentration of 50 nM (50 pmoles ODN in 1.0 ml volume) in RNase-free disposable cuvettes. […] Dilutions of stock RNase A, RNase 1, and RNase T1 were made in water. […] Assays were incubated at 37° C. for 1 hour and examined for fluorescence emission at 520 nm using 490 nm excitation in a PTI fluorometer. […]

[3] = target: RNase 1 (Escherichia coli, UniProt P21338); test: Visual detection ribonuclease assay, cleavage of Substrate by RNase 1; format: biochemical, E. coli; details: final dilution factors of stock 10^−2 to 10^−7; Substrate 500 nM; room temperature 10 minutes
Sequence of RNase 1 (P21338 24-268): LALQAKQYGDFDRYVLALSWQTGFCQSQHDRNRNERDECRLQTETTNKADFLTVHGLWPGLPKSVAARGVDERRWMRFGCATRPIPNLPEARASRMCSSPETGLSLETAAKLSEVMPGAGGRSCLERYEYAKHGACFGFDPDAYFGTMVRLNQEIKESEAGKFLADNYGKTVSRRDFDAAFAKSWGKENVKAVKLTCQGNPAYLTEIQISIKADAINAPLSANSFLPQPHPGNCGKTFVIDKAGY
Experimental: It is commonly accepted that fluorometry provides for high sensitivity. To be useful, the visual method must also offer high sensitivity. Assays were conducted using the method of the invention with visual detection. Substrate SEQ ID NO:30 was mixed in 1× Assay Buffer at a concentration of 500 nM (50 pmoles ODN in 100 ul volume) in thin-walled, UV transparent tubes. […] Dilutions of stock RNase A, RNase 1, and RNase T1 were made in water. Undiluted and diluted nuclease (1 ul) was added to respective 100 ul Assay Mixes resulting in final dilution factors of 10^−2, 10^−3, 10^−4, 10^−5, 10^−6, and 10^−7. Assays were incubated at room temperature for 10 minutes and visually examined for fluorescence emission with UV excitation. […] The experiment took about 30 minutes to perform, including 15 minutes to set-up serial dilutions, 10 minutes incubation, and 5 minutes to visualize and photograph. Thus the method of the invention allows for a rapid, simple, and convenient visual assay for the presence of ribonuclease activity.

[4] = system: RNase A, RNase 1, and RNase T1; test: Substrate optimization in ribonuclease assays (visual and fluorometric detection); format: biochemical; details: 28 Substrate ODNs compared
Experimental: Nuclease assays were conducted using the method of the invention with both visual and fluorometric detection methods. Substrates were individually mixed in 1× Assay Buffer at a concentration of 50 nM (50 pmoles oligonucleotide in 1 ml volume) for fluorometric detection or at a concentration of 500 nM (50 pmoles of oligonucleotide in 100 ul volume) for visual detection. Test nucleases were added to respective Assay Mixes beginning at 1 ul stock reagent and proceeding with a 1:10 serial dilution until undetectable. Reaction mixes were incubated at 37° C. for 60 minutes. Fluorometric detection was performed as outlined in Example 2. Visual detection was performed as outlined in Example 1.
Different Substrates were examined for reactivity with RNase A, RNase 1, and RNase T1. A Substrate composition that contains all 4 ribonucleotide bases in an optimized sequence might be sensitive to most ribonuclease activities and could function as a stand-alone reagent for the Assay. Alternatively, a mix of Substrates could be used (for example, wherein one Substrate contains adenosine, one contains guanosine, one contains uridine, and one contains cytosine residues). Both possibilities were tested. […] Substrates having different base sequence were compared for sensitivity. […] Sequence dependence for RNase T1 was pronounced with cleavage preference being ‘gg’>‘gc’>‘ga’>‘gu’. […]

## 5′ Fluorescein-AauggcA-QSY-7 3′ (NAAUGGCAN; 5' fluorescein and 3' QSY-7 labels, nucleotide chemistry not given here) [SEQ ID NO:30]
[1]; RNase A 0.33 ug/ml, 37° C. 1 hour, 490 nm excitation
  Reactivity with RNase A (fluorometer): reacted
[1]; control reaction without ribonuclease, 1× Assay Buffer, 37° C.
  Assay background (hydrolysis of the Substrate) over time: stable
[1]; fluorometric detection, 37° C. 1 hour, dilution factor 10^−8
  Enzyme Concentration, lowest tested reproducibly positive with signal:noise at least 2:1, RNase A: 10 pg/mL
[2]; RNase T1 333 units/ml, emission 520 nm, 490 nm excitation
  Reactivity with RNase T1 (fluorometer): reacted
[2]; fluorometric detection, dilution factor 10^−8
  Enzyme Concentration, lowest tested reproducibly positive with signal:noise at least 2:1, RNase T1: 0.00001 units/ml
[3]
  Detection of RNase 1 activity by visual examination: clearly detectable
[4]
  Relative activity / sensitivity among Substrates tested: most active

Reference: US7276337B2, “Compositions and methods for visual ribonuclease detection assays” (Integrated DNA Technologies, Inc., priority 2000, dated 2007)
